Columns and labels:
CMS model mice [1] = test: TST in chronic unpredictable mild stress (CMS) model mice; assay type: in vivo, mouse; settings: for Immobility time (s) (mean ± SEM): oral once a day for 7 days
Protocol: (§1) Kunming mice (Certificate Number: A4CXK(Chuan)2003-16) from the Institute of Experimental Animals, People's Hospital of Sichuan Province, were used. They were 3-4 weeks old at the beginning of experiments and weighed 25-30 g. ORG was prepared as described in Example 1. Animals were divided into experiment groups with different doses, a vehicle control group, and an imipramine group (Sigma, Batch No. 106k1588) as positive control.
(§2) CMS model: The chronic mild stresses that Kunming mice were subjected to were reversal of circadian rhythm, continuous light, cold, damp bedding, tilt cages, food and water restriction, and restraint. […] The stress period lasted for 8 weeks. In the last week, ORG was administered orally once a day for 7 consecutive days. The behavioral test was carried out 30 min after the last administration. The parameter tested was immobility time in the FST and TST in the CMS model mice. The methods of FST and TST and data analysis were as described above.

serum corticosterone = test: Serum corticosterone level (radioimmunoassay), non-stressed and elevated platform stressed rats; assay type: in vivo, rat
Kunming mice [2] = test: Elevated plus maze (EPM) test in mice; assay type: in vivo, mouse; settings: i.p. 24 h and 5 h before test
Protocol: as §1, with “the experiment” for “experiments”, “drug administration” for “experiment”, “doses of ORG,” for “doses,”, “a diazepam” for “an imipramine”, “(Jinyao Ltd. Co.,” for “(Sigma,”
Elevated plus maze (EPM): The EPM had two open and two closed arms of equal size (30 cm long×5 cm wide). The two closed arms were connected by a central 5 cm×5 cm area. The whole maze was elevated to a height of 35 cm. ORG was administered i.p. 24 h and 5 h before the test started. Mice were individually placed in the center of the maze facing a closed arm. Each animal was tested for 5 min in a single session. The number of entrances into open arms, the number of entrances into closed arms, the total time spent in open arms, and the total time spent in closed arms were recorded; a standard of entry was defined as all limbs entering the arm. The number of entrances into open arms and time spent in open arms were the major indexes to evaluate the anxiety level of the animals, for the more entrances or time, the less the anxiety level.
(§3) Data analysis: The results of the test are expressed as mean±SEM. One-way ANOVA was used followed by the LSD test with SPSS 11 software. The significance level was set at P<0.05.

Kunming mice [3] = test: Forced swim test (FST) in mice
Kunming mice [4] = test: Tail suspension test (TST) in mice
CMS model mice [5] = test: FST in chronic unpredictable mild stress (CMS) model mice; assay type: in vivo, mouse; settings: for Immobility time (s) (mean ± SEM): oral once a day for 7 days
Protocol: as §1, §2

Kunming mice [6] = test: Morris water maze (MWM) in mice; assay type: in vivo, mouse
Protocol: Kunming mice (Certificate Number: A4CXK(Chuan)2003-16) from the Institute of Experimental Animals, People's Hospital of Sichuan Province, were used. They were 3-4 weeks old at the beginning of the experiment and weighed 25-30 g. ORG was prepared as described in Example 1. Animals were divided into drug administration groups with fluoxetine or different doses of ORG and a vehicle control group. The drug administration groups received 1.75 mg/kg or 3.5 mg/kg of ORG or 15 mg/kg of fluoxetine. Animals received a single i.p. injection of drug or vehicle 30 min either after training every day or 30 min before the retention test on day 8.
Morris water maze: The MWM was performed in a circular pool (100 cm in diameter and 36 cm in depth) with a hidden platform (10 cm×10 cm) that was approximately 1 cm below the water surface. The pool was surrounded by yellow curtains with different shaped markers hanging in each quadrant. The time spent to find the hidden platform and the trajectory of the mouse were recorded by computer. From days 1 to 7, mice were placed in the pool to find the fixed hidden platform. On day 8, the platform was removed and the time that the mouse spent in the target quadrant was counted in 1 min of free swimming.
as §3

[7] = CMS mice, test 30 min after last dose, 1.25 mg/kg
[8] = Mus musculus, CMS model mice, ORG oral

## Cc1cc(O)cc(OC2OC(CO)C(O)C(O)C2O)c1 [ORG, orcinol-1-O-β-D-glucopyranoside]
CMS model mice [1]; CMS mice
  therapeutic index (TI) = TD50÷ED50: > 415
CMS model mice [1]; CMS mice, 5 mg/kg
  Immobility time (s) (mean ± SEM): 146.30 ± 11.66 s
CMS model mice [1]; CMS mice, 10 mg/kg
  Immobility time (s) (mean ± SEM): 145.31 ± 12.41 s
CMS model mice [1]; CMS mice, 20 mg/kg
  Immobility time (s) (mean ± SEM): 140.69 ± 14.14 s
CMS model mice [1]; [7]
  Immobility time (s) (mean ± SEM): 171.20 ± 13.02 s
CMS model mice [1]; CMS model mice, ORG oral
  best dose for the antidepressant effect: 20 mg/kg
CMS model mice [1]; [8]
  ED50: ~4.22 mg/kg
Serum corticosterone; non-stress rats, i.p., 3.5 mg/kg
  Concentration of serum corticosterone (ng/ml) (mean ± SEM): 166.06 ± 41.90 ng/mL
Serum corticosterone; non-stress rats, i.p., 14 mg/kg
  Concentration of serum corticosterone (ng/ml) (mean ± SEM): 70.04 ± 14.75 ng/mL
Serum corticosterone; non-stress rats, i.p., 28 mg/kg
  Concentration of serum corticosterone (ng/ml) (mean ± SEM): 63.13 ± 22.21 ng/mL
Serum corticosterone; non-stress rats, i.p., blood 1 h after injection, 0.875 mg/kg
  Concentration of serum corticosterone (ng/ml) (mean ± SEM): 209.02 ± 52.77 ng/mL
Serum corticosterone; stress rats (elevated platform 30 min, 1 h after i.p. injection), 0.875 mg/kg
  Concentration of serum corticosterone (ng/ml) (mean ± SEM): 349.85 ± 61.75 ng/mL
Serum corticosterone; stress rats, i.p., 3.5 mg/kg
  Concentration of serum corticosterone (ng/ml) (mean ± SEM): 263.63 ± 49.14 ng/mL
Serum corticosterone; stress rats, i.p., 14 mg/kg
  Concentration of serum corticosterone (ng/ml) (mean ± SEM): 237.63 ± 32.45 ng/mL
Serum corticosterone; stress rats, i.p., 28 mg/kg
  Concentration of serum corticosterone (ng/ml) (mean ± SEM): 137.41 ± 26.84 ng/mL
Kunming mice [2]; 5 mg/kg
  Number of entries into open arms (mean ± SEM): 4.50 ± 0.58
  Total time spent in the open arms (s) (mean ± SEM): 50.00 ± 8.99 s
Kunming mice [2]; 20 mg/kg
  Number of entries into open arms (mean ± SEM): 1.80 ± 0.79
  Total time spent in the open arms (s) (mean ± SEM): 16.50 ± 3.60 s
Kunming mice [2]; 100 mg/kg
  Number of entries into open arms (mean ± SEM): 5.90 ± 0.57
  Total time spent in the open arms (s) (mean ± SEM): 70.60 ± 11.56 s
Kunming mice [3]; FST mice, ORG i.g. 24 h and 5 h before test
  dose of the best efficacy: 3 mg/kg
Kunming mice [3]; FST mice, i.g. 24 h and 5 h before test, 0.093 mg/kg
  Immobility time (s) (mean ± SEM): 169.35 ± 4.32 s
Kunming mice [3]; FST mice, i.g., 0.186 mg/kg
  Immobility time (s) (mean ± SEM): 155.30 ± 9.19 s
Kunming mice [3]; FST mice, i.g., 0.3725 mg/kg
  Immobility time (s) (mean ± SEM): 137.57 ± 6.41 s
Kunming mice [3]; FST mice, i.g., 0.75 mg/kg
  Immobility time (s) (mean ± SEM): 139.45 ± 7.04 s
Kunming mice [3]; FST mice, i.g., 1.5 mg/kg
  Immobility time (s) (mean ± SEM): 127.23 ± 6.63 s
Kunming mice [3]; FST mice, i.g., 3 mg/kg
  Immobility time (s) (mean ± SEM): 114.41 ± 6.23 s
Kunming mice [3]; FST mice, i.g., 6 mg/kg
  Immobility time (s) (mean ± SEM): 129.76 ± 5.99 s
Kunming mice [3]; FST mice, i.g., 12 mg/kg
  Immobility time (s) (mean ± SEM): 122.71 ± 5.56 s
Kunming mice [3]; FST mice, i.g., 24 mg/kg
  Immobility time (s) (mean ± SEM): 121.57 ± 6.13 s
Kunming mice [3]; FST mice, i.g., 48 mg/kg
  Immobility time (s) (mean ± SEM): 135.36 ± 4.60 s
Kunming mice [3]; FST mice, i.g., 96 mg/kg
  Immobility time (s) (mean ± SEM): 145.34 ± 5.39 s
Kunming mice [3]; FST mice, oral 3 mg/kg twice in 24 h, recorded 5 h after last treatment (Table 7)
  Immobility (% NS) (mean ± SEM): 64.03 ± 7.20 % NS
Kunming mice [3]; FST mice, oral 3 mg/kg twice, 19 h apart
  onset of antidepressant effect after the second administration: 2.5 h
Kunming mice [3]; FST mice, oral 3 mg/kg twice, 19 h apart, time after second administration
  maintenance of antidepressant effect: at least 72 h
Kunming mice [3]; FST mice, oral 3 mg/kg, 1 administration in 24 h, recorded 5 h after last treatment
  Immobility (% NS) (mean ± SEM): 83.57 ± 6.66 % NS
Kunming mice [3]; FST mice, oral 3 mg/kg, 2 administrations in 24 h, recorded 5 h after last treatment (Table 6)
  Immobility (% NS) (mean ± SEM): 64.98 ± 5.96 % NS
Kunming mice [3]; FST mice, oral 3 mg/kg, 3 administrations in 24 h, recorded 5 h after last treatment
  Immobility (% NS) (mean ± SEM): 65.65 ± 9.67 % NS
Kunming mice [3]; FST mice, oral 3 mg/kg, 4 administrations in 24 h, recorded 5 h after last treatment
  Immobility (% NS) (mean ± SEM): 89.81 ± 6.50 % NS
Kunming mice [3]; FST mice, oral 3 mg/kg, 5 administrations in 24 h, recorded 5 h after last treatment
  Immobility (% NS) (mean ± SEM): 91.26 ± 5.93 % NS
Kunming mice [3]; FST mice, oral 6 mg/kg once in 24 h, recorded 5 h after treatment (Table 7)
  Immobility (% NS) (mean ± SEM): 80.70 ± 4.64 % NS
Kunming mice [3]; FST mice, oral, dose 6 mg/kg (3 mg/kg twice, 19 h apart), 2 weeks after last administration
  Immobility (% NS) (mean ± SEM): 99.54 ± 5.54 % NS
Kunming mice [3]; FST mice, oral, dose 6 mg/kg (3 mg/kg twice, 19 h apart), 2.5 h after last administration
  Immobility (% NS) (mean ± SEM): 73.63 ± 4.21 % NS
Kunming mice [3]; FST mice, oral, dose 6 mg/kg (3 mg/kg twice, 19 h apart), 5 h after last administration
  Immobility (% NS) (mean ± SEM): 71.92 ± 6.05 % NS
Kunming mice [3]; FST mice, oral, dose 6 mg/kg (3 mg/kg twice, 19 h apart), 24 h after last administration
  Immobility (% NS) (mean ± SEM): 62.83 ± 6.59 % NS
Kunming mice [3]; FST mice, oral, dose 6 mg/kg (3 mg/kg twice, 19 h apart), 72 h after last administration
  Immobility (% NS) (mean ± SEM): 77.33 ± 6.07 % NS
Kunming mice [3]; Mus musculus
  ED50: ~0.22 mg/kg
Kunming mice [3]; mice, FST
  therapeutic index (TI) = TD50÷ED50: > 7955
Kunming mice [4]; Mus musculus
  ED50: ~0.73 mg/kg
Kunming mice [4]; TST mice, ORG i.g. 24 h and 5 h before test
  dose of the best efficacy: 12 mg/kg
Kunming mice [4]; TST mice, i.g. 24 h and 5 h before test, 0.1875 mg/kg
  Immobility time (s) (mean ± SEM): 161.70 ± 6.89 s
Kunming mice [4]; TST mice, i.g., 0.375 mg/kg
  Immobility time (s) (mean ± SEM): 155.68 ± 6.77 s
Kunming mice [4]; TST mice, i.g., 0.5 mg/kg
  Immobility time (s) (mean ± SEM): 125.30 ± 6.93 s
Kunming mice [4]; TST mice, i.g., 0.75 mg/kg
  Immobility time (s) (mean ± SEM): 117.33 ± 6.56 s
Kunming mice [4]; TST mice, i.g., 1.5 mg/kg
  Immobility time (s) (mean ± SEM): 109.27 ± 6.81 s
Kunming mice [4]; TST mice, i.g., 3 mg/kg
  Immobility time (s) (mean ± SEM): 98.07 ± 5.95 s
Kunming mice [4]; TST mice, i.g., 6 mg/kg
  Immobility time (s) (mean ± SEM): 89.73 ± 5.02 s
Kunming mice [4]; TST mice, i.g., 12 mg/kg
  Immobility time (s) (mean ± SEM): 77.67 ± 5.33 s
Kunming mice [4]; TST mice, i.g., 24 mg/kg
  Immobility time (s) (mean ± SEM): 91.03 ± 7.44 s
Kunming mice [4]; TST mice, i.g., 48 mg/kg
  Immobility time (s) (mean ± SEM): 100.20 ± 10.46 s
Kunming mice [4]; TST mice, i.g., 96 mg/kg
  Immobility time (s) (mean ± SEM): 107.68 ± 8.85 s
Kunming mice [4]; mice, TST
  therapeutic index (TI) = TD50÷ED50: > 2397
CMS model mice [5]; CMS mice
  therapeutic index (TI) = TD50÷ED50: > 2160
CMS model mice [5]; CMS mice, 2.5 mg/kg
  Immobility time (s) (mean ± SEM): 177.00 ± 11.78 s
CMS model mice [5]; CMS mice, 5 mg/kg
  Immobility time (s) (mean ± SEM): 177.50 ± 12.39 s
CMS model mice [5]; CMS mice, 10 mg/kg
  Immobility time (s) (mean ± SEM): 170.84 ± 10.48 s
CMS model mice [5]; CMS mice, 20 mg/kg
  Immobility time (s) (mean ± SEM): 164.95 ± 11.36 s
CMS model mice [5]; [7]
  Immobility time (s) (mean ± SEM): 190.90 ± 12.94 s
CMS model mice [5]; CMS model mice, ORG oral
  best dose for the antidepressant effect: 20 mg/kg
CMS model mice [5]; [8]
  ED50: 0.81 mg/kg
Kunming mice [6]; i.p. 30 min before retrieval on day 8, 1.75 mg/kg
  Time spent in the right quadrant (s) (mean ± SEM): 29.38 ± 2.16 s
Kunming mice [6]; i.p. 30 min before retrieval on day 8, 3.5 mg/kg
  Time spent in the right quadrant (s) (mean ± SEM): 35.52 ± 2.43 s
Kunming mice [6]; i.p. daily 30 min after training, retention test day 8, 1.75 mg/kg
  Time spent in the right quadrant (s) (mean ± SEM): 28.18 ± 1.70 s
Kunming mice [6]; i.p. daily 30 min after training, retention test day 8, 3.5 mg/kg
  Time spent in the right quadrant (s) (mean ± SEM): 34.24 ± 2.01 s

— patent publication US8859508B2, “Application of 5-methyl-1,3-benzenediol or derivatives thereof in the preparation of medicines and functional foods for treatment or prevention of depression” (Kunming Institute of Botany, Chinese Academy of Sciences, priority 2007, dated 2014)
